Assays:
EssC-C [1] = biological target: T1, EssC-C (Geobacillus thermodenitrificans, UniProt A4IKE7); design: gene eccC; conditions: D2 nucleotide site; ATP modelled in the second molecule (mant density ambiguous, crystal grown with mant-ATP); also present in SeMet structure without added nucleotide; displaces mant-ATP
EssC-C [2] = biological target: T1, EssC-C; assay: fluorescence titration (excitation […] nm, emission […] nm); assay type: binding; design: gene eccC; C-terminal fragment, residues 966-1479 (ATPase modules D2 and D3); N-terminal His6 tag removed with TEV; E. coli host
[3] = biological target: the molecule itself; assay: native gel or EMSA; blue native PAGE, linear 4-12% gradient native Bis-Tris gels; 8 ug purified EssC-C or 5 ug full-length EssC (DDM-solubilized) loaded; band identity by peptide mass fingerprinting

## Nc1ncnc2c1ncn2[C@@H]1O[C@H](COP(=O)(O)OP(=O)(O)OP(=O)(O)O)[C@@H](O)[C@H]1O [ATP]
EssC-C [1]
  X-ray crystal structure (2.9 Å); displacement of mant-ATP fluorescence: ATP was present in the nucleotide-binding site of the D2 module

## CNc1ccccc1C(=O)O[C@H]1[C@@H](O)[C@H](n2cnc3c(N)ncnc32)O[C@@H]1CO[P@@](=O)(O)O[P@](=O)(O)OP(=O)(O)O (mixture of isomers) [mant-ATP, 2′/3′-(N-methyl-anthraniloyl)-adenosine-5′-triphosphate]
EssC-C [2]
  Kd: 940 ± 110 nM

B1: full-length membrane-bound EssC from Geobacillus thermodenitrificans NG80-2 (natural protein, UniProt A4IKE7 1-1479, looked up)
chain: MSQLWVLYETYCQLFSLTNEEKVIVIGNQLEHHVTVSSFSFRNGYIQIEKKSDGSTLAVLQGGRQIGELKPRCSITIDVDGQQMTIAWSGEEQRKYVYYVGQQSEVLVSNDPQADIETTNARFSLRKHRGQWVVIPDDDAPLFLNGVQLSDAVSLRNGDVLLCPYMQFVFIEEDLLAVTSSEEVVSSLTETMPPLSEMKKKYPMYRRTPRMIYELPSDKVSISFPSQEGDGDPRGLWLMVLPPVMMLLVIGAVALIQPRGVFIMISIAMFATTIVTSTAQYMREKKARQMRKEKRRRIYTNYLEQKREELQALSEKQRNVLYYHFPSFEQMKSFVMQVNSRIWERTAESADFLHVRIGTADVPATYEVSVSMGDLANREIDDLLEQAQHIAKVYQTVKHVPLPIDVSHGAIGMVGKRSIVNGEIEQLVGQIAFFHSYHDVRFVAIFSEDDYKHWEWMKWLPHFQLPNSFAKGLIYNEQTRDQLLSSIYEMLRERALDEEKDKKRFSPHFVFIVADRSLIAEHVILEYLEEKNEDIGISVIFASETKESLTENVHTLVQYINEREGEIVIQHRKAAHIPFQLDEHSTEGNESFARMLRSLNHQKGMSNSIPEKVTFLEMMQTRRANELQIVQNWLSCQTSRSLAVPIGLKGRNDVVELNLHEKAHGPHGLVAGTTGSGKSELLQTYILSLAVHFHPHEVAFLIIDYKGGGMAQPFKNMPHLLGTITNIHGSKNFSARALASINSELKKRQRLFDRYEVNHINDYMELYKQGKAEQPLPHLFLIADEFAELKSEEPDFIRELVSAARIGRSLGVHLILATQKPRGVIDEQIWSNARFRISLKMQDVNDSKEILRNGDAAAITVPGRAYLQVGNNEVYELFQSAWSGAPYVEEGVEAEDEIHIVTDLGLVPVSNVATDRKRSRQKPKTEIEMVVEQIIETQKQLNIEKLPSPWLPPLPPRLARPASVTAEANAFPIGLKDEPELQSQSDYFYQWLEDGNIGIFGSAGYGKSTTMMTLLLSFAGAYNPAQLHYYIFDFGNSALLPLRQLPHTADYFRLDDEKKIEKFIKFMKEEMEQRKQRFMEKEVSTIKLYNALSEEKLPIIIVALDNFDVVKEEMPDFETQLIQYARDGQSLGIFFIMTATRVSGIRPPLMNNLKTKIVHYFIDSSEKFSLIGRTPYDVDPIPGRALIKKDNAALTQIYLPADGEDDIEVLENVKREMERLKEVYQHIPKPKPIPMLPPRLSMSVFTNTYVQHRASGFIPVGLDEQTVRPVAINMRTDPHCLIVGQSRKGKTNVVKVILESLLVQEPESIGLLDGIDRGLAGYANRDDITYIEAKERLAQWLNEADAVLQQREREYIQAVNENRATTLAWPPVVFVVDSLLRLQQETDSIMQGRIANMMKQYSHLGFHVFVAGNANEFVKGFDALTAELKQIRQAILVTKKSEQSLFALPFTRNEQEIEPGFGYFVVGGKDQKIQIPKVE
notes: also called full-length EssC; full-length recombinant protein; source: E. coli LEMO21(DE3), membranes solubilized with DDM, purified (His-Trap, SEC on Superdex 200 with 0.03% DDM)
[3]
  stoichiometry N: ~6
